Experimental data as given in patent US7238697B2, “Pyridylpyrimidines for use as pesticides” (Bayer CropScience AG, priority 2001, dated 2007).

system: cotton aphid (Aphis gossypii); test: Aphis gossypii test (cotton leaves dipped); assay type: in vivo; details: 200 ppm
Experimental: To produce a suitable preparation of active compound, 1 part by weight of active compound is mixed with the stated amounts of solvent and emulsifier, and the concentrate is diluted with emulsifier-containing water to the desired concentration. Cotton leaves (Gossypium hirsutum) which are heavily infested by the cotton aphid (Aphis gossypii) are treated by being dipped into the preparation of active compound of the desired concentration. After the desired period of time, the kill in % is determined. 100% means that all aphids have been killed; 0% means that none of the aphids have been killed.

Which “Kill rate in % after 6 d” value does the source give for `CCCOC(=O)CSc1nccc(-c2ccccn2)n1` [drawing 399] here?
Its value is 85%.

With `O=C(CSc1nccc(-c2ccccn2)n1)OC1CCCCC1` [drawing 400] as the compound, how does the “Kill rate in % after 6 d” value read?
The value was 90%.

For `COC(=O)CSc1nccc(-c2ccccn2)n1` [drawing 398], which “Kill rate in % after 6 d” value is on record?
Its value is 85%.

system: thrips (Franklinella occidentalis); test: Franklinella test (cucumber plants sprayed); assay type: in vivo; details: 1000 ppm
Experimental: To product a suitable preparation of active compound, 1 part by weight of active compound is mixed with the stated amounts of solvent and emulsifier, and the concentrate is diluted to the desired concentration.
Cucumber plants (Cucumis sativus) which are heavily infested by all stages of thrips (Franklinella occidentalis) are sprayed with a preparation of active compound of the desired concentration.
After the desired period of time, the effect in % is determined. 100% means that all thrips have been killed; 0% means that none of the thrips have been killed.

With `COC(=O)CSc1nccc(-c2ccccn2)n1` [drawing 401] as the compound, how does the “Kill rate in % after 7 d” value read?
Its value is 99%.

system: Meloidogyne incognita; test: Meloidogyne test (gall formation on lettuce roots); assay type: in vivo; details: 336 h, after 14 d, solvent 7 parts DMF, emulsifier 2 parts (Table C-2), read-out: Kill rate in % after 14 d
Experimental: To produce a suitable preparation of active compound, 1 part by weight of active compound is mixed with the stated amounts of solvent and emulsifier, and the concentrate is diluted with water to the desired concentration. Vessels are filled with sand, solution of active compound, Meloidogyne incognita egg/larvae suspension and lettuce seeds. The lettuce seeds germinate and the plants develop. On the roots, galls are formed. After the desired period of time, the nematicidal action is determined in % by the gall formation. 100% means that no galls were found; 0% means that the number of galls on the treated plants corresponds to that of the untreated control.

With `CCOC(=O)C(C)OC(=O)CSc1nccc(-c2ccccn2)n1` (stereo not shown) [drawing 409] as the compound, how does the pest or weed control at 20 ppm read?
Its pest or weed control at 20 ppm is 80%.

For `CCOC(=O)CSc1nccc(-c2ccc(C)cn2)n1` [drawing 412], which pest or weed control at 20 ppm is on record?
The pest or weed control at 20 ppm was 90%.

Which pest or weed control at 20 ppm does the source give for `CCOC(=O)CSc1nccc(-c2ccc(CC)cn2)n1` [drawing 411] here?
Its pest or weed control at 20 ppm is 90%.

Which pest or weed control at 20 ppm does the source give for `CCOC(=O)CSc1nccc(-c2ccc(C(F)(F)F)cn2)n1` [drawing 413] here?
The pest or weed control at 20 ppm was 100%.

Which pest or weed control at 20 ppm does the source give for `COC(=O)CSc1nc(-c2ccccc2)cc(-c2ccccn2)n1` [drawing 410] here?
Its pest or weed control at 20 ppm is 100%.

How did the pest or weed control at 20 ppm turn out when `CC(C)(C)n1nnc(CSc2nccc(-c3ccccn3)n2)n1` [drawing 414] was run?
Its pest or weed control at 20 ppm is 90%.

same assay, conditions: 336 h, after 14 d, solvent 30 parts DMF, emulsifier 1 part (Table C-1), read-out: Kill rate in % after 14 d

`COC(=O)CSc1nc(-c2ccccn2)c2cc(Cl)ccc2n1` [drawing 406] was tested. Which pest or weed control at 20 ppm did it give?
Its pest or weed control at 20 ppm is 98%.

`COCCOC(=O)CSc1nccc(-c2ccccn2)n1` [drawing 403] was tested. Which pest or weed control at 20 ppm did it give?
The pest or weed control at 20 ppm was 90%.

`CC(C)=NNC(=O)CSc1nccc(-c2ccccn2)n1` [drawing 404] was tested. Which pest or weed control at 20 ppm did it give?
The pest or weed control at 20 ppm was 98%.

How did the pest or weed control at 20 ppm turn out when `COC(=O)CSc1nc(-c2ccccn2)cc(-c2ccccn2)n1` [drawing 407] was run?
Its pest or weed control at 20 ppm is 95%.

For `CCOC(=O)CSc1nccc(-c2ccccn2)n1` [drawing 402], which pest or weed control at 20 ppm is on record?
Its pest or weed control at 20 ppm is 90%.

For `COC(=O)CCCSc1nccc(-c2ccccn2)n1` [drawing 405], which pest or weed control at 20 ppm is on record?
Its pest or weed control at 20 ppm is 90%.

`CCOC(=O)/C=C/CSc1nccc(-c2ccccn2)n1` [drawing 408] was tested. Which pest or weed control at 20 ppm did it give?
Its pest or weed control at 20 ppm is 100%.

system: peach aphids (Myzus persicae); test: Myzus test (cabbage leaves dipped); assay type: in vivo; details: 144 h, 100 ppm, after 6 d, solvent 30 parts DMF, emulsifier 1 part (Table D-1), read-out: Kill rate in % after 6 d
Experimental: To produce a suitable preparation of active compound, 1 part by weight of active compound is mixed with the stated amounts of solvent and emulsifier, and the concentrate is diluted with emulsifier-containing water to the desired concentration. Cabbage leaves (Brassica oleracea) which are heavily infested by peach aphids (Myzus persicae) are treated by being dipped into the preparation of the active compound of the desired concentration. After the desired period of time, the kill in % is determined. 100% means that all aphids have been killed; 0% means that none of the aphids has been killed.

`COC(=O)C(Sc1nccc(-c2ccccn2)n1)C(=O)OC` [drawing 421] was tested. Which pest or weed control at 100 ppm did it give?
The pest or weed control at 100 ppm was 95%.

Which pest or weed control at 100 ppm does the source give for `COC(=O)CSc1nccc(-c2ccccn2)n1` [drawing 415] here?
Its pest or weed control at 100 ppm is 100%.

same assay, conditions: 144 h, 200 ppm, after 6 d, solvent 30 parts DMF, emulsifier 1 part (Table D-1), read-out: Kill rate in % after 6 d

How did the pest or weed control at 200 ppm turn out when `COC(=O)CC(=O)CSc1nccc(-c2ccccn2)n1` [drawing 427] was run?
Its pest or weed control at 200 ppm is 95%.

same assay, conditions: 144 h, 500 ppm, after 6 d, solvent 7 parts DMF, emulsifier 2 parts (Table D-2), read-out: Kill rate in % after 6 d

`CCC1(COC(=O)CSc2nccc(-c3ccccn3)n2)CCO1` (stereo not shown) [drawing 428] was tested. Which pest or weed control at 500 ppm did it give?
The pest or weed control at 500 ppm was 98%.

For `CC(C)(C)SC(=O)CSc1nccc(-c2ccccn2)n1` [drawing 438], which pest or weed control at 500 ppm is on record?
Its pest or weed control at 500 ppm is 95%.

Which pest or weed control at 500 ppm does the source give for `O=C(CSc1nccc(-c2ccccn2)n1)OC1COC1` [drawing 436] here?
The pest or weed control at 500 ppm was 95%.

With `CC(C)OC(=O)C(C)OC(=O)CSc1nccc(-c2ccccn2)n1` (stereo not shown) [drawing 434] as the compound, how does the pest or weed control at 500 ppm read?
The pest or weed control at 500 ppm was 95%.

How did the pest or weed control at 500 ppm turn out when `CCOC(=O)CSc1nccc(-c2cc(OC)ccn2)n1` [drawing 439] was run?
Its pest or weed control at 500 ppm is 90%.

How did the pest or weed control at 500 ppm turn out when `O=C(CSc1nccc(-c2ccccn2)n1)OC1CS(=O)(=O)C1` [drawing 432] was run?
Its pest or weed control at 500 ppm is 100%.

How did the pest or weed control at 500 ppm turn out when `CC(=O)NCC(C)OC(=O)CSc1nccc(-c2ccccn2)n1` (stereo not shown) [drawing 433] was run?
The pest or weed control at 500 ppm was 95%.

Which pest or weed control at 500 ppm does the source give for `COCN(C)C(=O)COC(=O)CSc1nccc(-c2ccccn2)n1` [drawing 430] here?
The pest or weed control at 500 ppm was 98%.

How did the pest or weed control at 500 ppm turn out when `CCOC(=O)CSc1nccc(-c2ccc(C)cn2)n1` [drawing 440] was run?
The pest or weed control at 500 ppm was 98%.

`O=C(CSc1nccc(-c2ccccn2)n1)OC1CC(F)(F)C1(F)F` (stereo not shown) [drawing 435] was tested. Which pest or weed control at 500 ppm did it give?
The pest or weed control at 500 ppm was 100%.

`NC(=O)CCSc1nccc(-c2ccccn2)n1` [drawing 437] was tested. Which pest or weed control at 500 ppm did it give?
The pest or weed control at 500 ppm was 80%.

For `CCOC(=O)C1CC1COC(=O)CSc1nccc(-c2ccccn2)n1` (stereo not shown) [drawing 429], which pest or weed control at 500 ppm is on record?
The pest or weed control at 500 ppm was 98%.

same assay, conditions: 144 h, 1000 ppm, after 6 d, solvent 30 parts DMF, emulsifier 1 part (Table D-1), read-out: Kill rate in % after 6 d

Which pest or weed control at 1000 ppm does the source give for `CCCOC(=O)CSc1nccc(-c2ccccn2)n1` [drawing 417] here?
Its pest or weed control at 1000 ppm is 95%.

Which pest or weed control at 1000 ppm does the source give for `O=C(CSc1nccc(-c2ccccn2)n1)OC1CCCCC1` [drawing 420] here?
The pest or weed control at 1000 ppm was 100%.

How did the pest or weed control at 1000 ppm turn out when `NC(=O)CSc1nccc(-c2ccccn2)n1` [drawing 422] was run?
Its pest or weed control at 1000 ppm is 95%.

Which pest or weed control at 1000 ppm does the source give for `C=CCOC(=O)CSc1nccc(-c2ccccn2)n1` [drawing 419] here?
The pest or weed control at 1000 ppm was 95%.

Which pest or weed control at 1000 ppm does the source give for `CCOC(=O)CSc1nccc(-c2ccccn2)n1` [drawing 416] here?
Its pest or weed control at 1000 ppm is 100%.

With `O=C(O)CSc1nccc(-c2ccccn2)n1` [drawing 424] as the compound, how does the pest or weed control at 1000 ppm read?
Its pest or weed control at 1000 ppm is 100%.

For `CC(C)OC(=O)CSc1nccc(-c2ccccn2)n1` [drawing 418], which pest or weed control at 1000 ppm is on record?
Its pest or weed control at 1000 ppm is 100%.

system: larvae of the mustard beetle (Phaedon cochleariae); test: Phaedon larvae test (cabbage leaves dipped); assay type: in vivo; details: 500 ppm, solvent 7 parts DMF, emulsifier 2 parts (Table E-2)
Experimental: To produce a suitable preparation of active compound, 1 part by weight of active compound is mixed with the stated amounts of solvent and emulsifier, and the concentrate is diluted with emulsifier-containing water to the desired concentration. Cabbage leaves (Brassica oleracea) are treated by being dipped into the preparation of active compound of the desired concentration and are populated with larvae of the mustard beetle (Phaedon cochleariae) while the leaves are still moist. After the desired period of time, the kill in % is determined. 100% means that all beetle larvae have been killed; 0% means that none of the beetle larvae have been killed.

With `CC(C)(C)n1nnc(CSc2nccc(-c3ccccn3)n2)n1` [drawing 444] as the compound, how does the “Kill rate in % after 7 d” value read?
Its value is 100%.

`CCOC(=O)CSc1nccc(-c2ccc(C(F)(F)F)cn2)n1` [drawing 442] was tested. Which “Kill rate in % after 7 d” value did it give?
The value was 100%.

Which “Kill rate in % after 7 d” value does the source give for `CCOC(=O)CSc1nccc(-c2ccc(Cl)cn2)n1` [drawing 443] here?
Its value is 100%.

same assay, conditions: 1000 ppm, solvent 30 parts DMF, emulsifier 1 part (Table E-1)

`O=C(CSc1nccc(-c2ccccn2)n1)N/N=C/c1ccc([N+](=O)[O-])cc1` [drawing 441] was tested. Which “Kill rate in % after 7 d” value did it give?
The value was 100%.

system: caterpillars of the army worm (Spodoptera frugiperda); test: Spodoptera frugiperda test (cabbage leaves dipped); assay type: in vivo; details: 500 ppm, solvent 7 parts DMF, emulsifier 2 parts
Experimental: To produce a suitable preparation of active compound, 1 part by weight of active compound is mixed with the stated amounts of solvent and emulsifier, and the concentrate is diluted with emulsifier-containing water to the desired concentration. Cabbage leaves (Brassica oleracea) are treated by being dipped into the preparation of active compound of the desired concentrated and are populated with caterpillars of the army worm (Spodoptera frugiperda) while the leaves are still moist. After the desired period of time, the kill in % is determined. 100% means that all caterpillars have been killed; 0% means that none of the caterpillars has been killed.

For `CCOC(=O)CSc1nc(C)cc(-c2ccccn2)n1` [drawing 445], which “Kill rate in % after 7 d” value is on record?
The value was 100%.

Which “Kill rate in % after 7 d” value does the source give for `CCOC(=O)CSc1nccc(-c2ccc(C(F)(F)F)cn2)n1` [drawing 446] here?
Its value is 100%.

With `CC(C)(C)n1nnc(CSc2nccc(-c3ccccn3)n2)n1` [drawing 447] as the compound, how does the “Kill rate in % after 7 d” value read?
Its value is 100%.
